Assay results from PubChem BioAssay AID1963435 (Molecular Pharmacology Branch, DTP, NCI, 2024).
Values belong to the compound of their own block, whether it stands above or below them.

Tested on: PANC-1 complex spheroid growth, percent test/control
Experiment: Anticancer human tumor PANC-1 cell line growth inhibition [Asc];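 note: spheroids exposed to agents for 7 days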;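 for viability, T/C: percent viability relative to DMSO vehicle wells taken as 100%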
Settings: for IC50: curve of first compound; for viability, T/C: stronger effect = lower value
Experimental: Multicellular complex tumor spheroid response to apoptosis pathway targeting inhibitors Alrizomadlin, Pelcitoclax, and Dasminapant in combination with a variety of drugs and investigational agents in selected tumor cell lines
The MDM2 inhibitor alrizomadlin, the Bcl-2/Bcl-xL inhibitor pelcitoclax, and the IAPs inhibitor dasminapant were evaluated both individually and in combination with standard of care and investigational anticancer small molecules within a complex spheroid model of solid tumors. . Complex spheroids include a stromal component modeled by human endothelial cells (HUVEC) and fibroblasts modeled by human mesenchymal stem cells (MSCs). The concentration ranges selected for each drug and investigational agent were based upon clinically achievable concentrations if the clinical Cmax of the agent was known.
Compounds. The drugs and investigational agents: alrizomadlin (APG-115; NSC831270), pelcitoclax (APG-1252; NSC835773), dasminapant (APG-1387;NSC834197), TAK-243 (NSC785004), copanlisib (NSC809693), olaparib (NSC753686), talazoparib (NSC767125), cobimetinib (NSC 768068), eltanexor (KPT-8602, NSC 794443), abemaciclib (NSC 768073), sotorasib (NSC818433), adagrasib (NSC 831453), MRTX-1133 (NSC 836407), Iadademestat (ORY1001, NSC 806812), and RMC-4630 (NSC839698), were obtained from the NCI Developmental Therapeutics Program Chemical Repository. The FDA-approved anticancer drug set is available from the Developmental Therapeutics Program at https://dtp.cancer.gov/organization/dscb/obtaining/available plates.htm. […] The stock solutions were prepared in dimethyl sulfoxide (DMSO, Sigma-Aldrich, St. Louis, MO, cat. D2650) at 800-fold the tested concentration and stored at -70 degrees C prior to their use. All drugs and investigational agents were tested over a range starting from a high concentration at or near the clinical Cmax and decreasing in half-log increments. If the clinical Cmax for an agent had not been determined, the highest concentration tested was 10 microM.
The patient-derived cancer (PDC) cell lines include five colon adenocarcinomas: 186277-243-T-J2-PDC, 616215-338-R-J1-PDC, 439559-082-T-J2-PDC, 463943-066-T-J2-PDC, and 519858-162-T-J1-PDC; three pancreatic carcinomas: 323965-272-R-J2-PDC, 521955-158-R6-J3-PDC, and 521955-158-R2-J5-PDC; two uterine sarcomas: 327498-152-R-J2-PDC and 993429-296-R-J1-PDC; two rhabdomyosarcomas: 755483-174-R-J1-PDC and 772245-204-R-J1-PDC; two soft tissue sarcomas: 126254-015-R-J1-PDC and 494315-158-R-J1-PDC; two malignant fibrous histiocytomas: 317291-083-R-J1-PDC and 596521-263-R-J1-PDC; two breast carcinomas: 171881-019-R-J1-PDC and 885512-296-R-J2-PDC; and one ovarian carcinoma: 6556581-035-R-J-PDC were obtained from the NCI PDMR, (https://pdmr.cancer.gov). The established cell lines HSSY-2 synovial sarcoma (RRID:CVCL 8719), SYO-1 synovial sarcoma (RRID:CVCL_7146), MPNST malignant peripheral neural sheath tumor were obtained from the Sloan Kettering Institute. The following established cell lines were purchased from the American Type Culture Collection (ATCC, Manassas, VA), Sor the received from the NCI repository:, PANC-1 pancreatic carcinoma (CRL-1469, RRID:CVCL_0480), OVCAR-5 ovarian carcinoma (RRID:CVCL_1628), OVCAR-8 ovarian carcinoma (RRID:CVCL_1629), , MCF-7 breast carcinoma (CRL-12584, RRID:CVCL_0031), MDA-MB-231 breast carcinoma (CRL-12532, RRID:CVCL_0062), NCI-H1876 small cell lung carcinoma (CRL-5902, RRID:CVCL_1503), NCI-H510A small cell lung carcinoma (HTB-184, RRID:CVCL_1565), NCI-H1417 (CRL-5869, RRID:CVCL_1469), and NCI-H196 small cell lung carcinoma (CRL-5823, RRID:CVCL_1509). Dr. Peter Houghton (Greehey Children's Cancer Research Institute, University of Texas Health Science Center, San Antonio, TX) provided Rh-18 rhabdomyosarcoma (RRID:CVCL_1659). Pooled donor human umbilical vein endothelial cells (HUVEC, Lonza, cat. CC-2519) and human mesenchymal stem cells (hMSC, Lonza, cat. PT-2501) were purchased from Lonza (Walkersville, MD).
Cell Culture. […]

[1] = second compound 0.00949 µM, first compound 0.00316 µM
[2] = second compound 0.00949 µM, first compound 0.01 µM
[3] = second compound 0.00949 µM, first compound 0.0316 µM
[4] = second compound 0.00949 µM, first compound 0.1 µM
[5] = second compound 0.00949 µM, first compound 0.316 µM
[6] = second compound 0.00949 µM, first compound 1 µM
[7] = second compound 0.03 µM, first compound 0.00316 µM
[8] = second compound 0.03 µM, first compound 0.01 µM
[9] = second compound 0.03 µM, first compound 0.0316 µM
[10] = second compound 0.03 µM, first compound 0.1 µM
[11] = second compound 0.03 µM, first compound 0.316 µM
[12] = second compound 0.03 µM, first compound 1 µM
[13] = second compound 0.0949 µM, first compound 0.00316 µM
[14] = second compound 0.0949 µM, first compound 0.01 µM
[15] = second compound 0.0949 µM, first compound 0.0316 µM
[16] = second compound 0.0949 µM, first compound 0.1 µM
[17] = second compound 0.0949 µM, first compound 0.316 µM
[18] = second compound 0.0949 µM, first compound 1 µM
[19] = second compound 0.3 µM, first compound 0.00316 µM
[20] = second compound 0.3 µM, first compound 0.01 µM
[21] = second compound 0.3 µM, first compound 0.0316 µM
[22] = second compound 0.3 µM, first compound 0.1 µM
[23] = second compound 0.3 µM, first compound 0.316 µM
[24] = second compound 0.3 µM, first compound 1 µM
[25] = second compound 0.949 µM, first compound 0.00316 µM
[26] = second compound 0.949 µM, first compound 0.01 µM
[27] = second compound 0.949 µM, first compound 0.0316 µM
[28] = second compound 0.949 µM, first compound 0.1 µM
[29] = second compound 0.949 µM, first compound 0.316 µM
[30] = second compound 0.949 µM, first compound 1 µM
[31] = second compound 3 µM, first compound 0.00316 µM
[32] = second compound 3 µM, first compound 0.01 µM
[33] = second compound 3 µM, first compound 0.0316 µM
[34] = second compound 3 µM, first compound 0.1 µM
[35] = second compound 3 µM, first compound 0.316 µM
[36] = second compound 3 µM, first compound 1 µM

- IC50 (second compound 0.00949 µM): > 1 µM
- IC50 (second compound 0.03 µM): > 1 µM
- IC50 (second compound 0.0949 µM): > 1 µM
- IC50 (second compound 0.3 µM): > 1 µM
- IC50 (second compound 0.949 µM): > 1 µM
- IC50 (second compound 3 µM): > 1 µM
SMILES: CCN1CCN(Cc2ccc(Nc3ncc(F)c(-c4cc(F)c5nc(C)n(C(C)C)c5c4)n3)nc2)CC1 + CCN1C(C(=O)NC23CCC(C(=O)O)(CC2)CC3)C(c2cccc(Cl)c2F)C2(C(=O)Nc3cc(Cl)ccc32)C12CCCCC2
- viability, T/C [1]: 112%
- viability, T/C [2]: 102%
- viability, T/C [3]: 109%
- viability, T/C [4]: 117%
- viability, T/C [5]: 126%
- viability, T/C [6]: 139%
- viability, T/C [7]: 105%
- viability, T/C [8]: 97.8%
- viability, T/C [9]: 114%
- viability, T/C [10]: 114%
- viability, T/C [11]: 131%
- viability, T/C [12]: 141%
- viability, T/C [13]: 108%
- viability, T/C [14]: 108%
- viability, T/C [15]: 105%
- viability, T/C [16]: 105%
- viability, T/C [17]: 125%
- viability, T/C [18]: 140%
- viability, T/C [19]: 99.8%
- viability, T/C [20]: 131%
- viability, T/C [21]: 110%
- viability, T/C [22]: 117%
- viability, T/C [23]: 124%
- viability, T/C [24]: 150%
- viability, T/C [25]: 102%
- viability, T/C [26]: 119%
- viability, T/C [27]: 121%
- viability, T/C [28]: 111%
- viability, T/C [29]: 128%
- viability, T/C [30]: 140%
- viability, T/C [31]: 116%
- viability, T/C [32]: 125%
- viability, T/C [33]: 118%
- viability, T/C [34]: 124%
- viability, T/C [35]: 131%
- viability, T/C [36]: 157%

- IC50 (second compound 0.00949 µM): > 1 µM
- IC50 (second compound 0.03 µM): > 1 µM
- IC50 (second compound 0.0949 µM): > 1 µM
- IC50 (second compound 0.3 µM): > 1 µM
- IC50 (second compound 0.949 µM): > 1 µM
- IC50 (second compound 3 µM): > 1 µM
SMILES: O=C(c1ccc(F)c(F)c1Nc1ccc(I)cc1F)N1CC(O)([C@@H]2CCCCN2)C1 + CCN1C(C(=O)NC23CCC(C(=O)O)(CC2)CC3)C(c2cccc(Cl)c2F)C2(C(=O)Nc3cc(Cl)ccc32)C12CCCCC2
- viability, T/C [1]: 90.7%
- viability, T/C [2]: 93.4%
- viability, T/C [3]: 87.1%
- viability, T/C [4]: 81.8%
- viability, T/C [5]: 93.1%
- viability, T/C [6]: 93.7%
- viability, T/C [7]: 90.5%
- viability, T/C [8]: 98.3%
- viability, T/C [9]: 98.5%
- viability, T/C [10]: 87.3%
- viability, T/C [11]: 95%
- viability, T/C [12]: 97.4%
- viability, T/C [13]: 93.9%
- viability, T/C [14]: 97%
- viability, T/C [15]: 88.4%
- viability, T/C [16]: 84.2%
- viability, T/C [17]: 92.4%
- viability, T/C [18]: 104%
- viability, T/C [19]: 97.5%
- viability, T/C [20]: 89.4%
- viability, T/C [21]: 89.6%
- viability, T/C [22]: 91.7%
- viability, T/C [23]: 100%
- viability, T/C [24]: 93.8%
- viability, T/C [25]: 100%
- viability, T/C [26]: 104%
- viability, T/C [27]: 91.8%
- viability, T/C [28]: 105%
- viability, T/C [29]: 104%
- viability, T/C [30]: 99%
- viability, T/C [31]: 110%
- viability, T/C [32]: 115%
- viability, T/C [33]: 106%
- viability, T/C [34]: 105%
- viability, T/C [35]: 109%
- viability, T/C [36]: 112%
